Here are results for 15 molecules from ChEMBL document CHEMBL3580594, “Synthesis and biological evaluation of 4-substituted fluoronucleoside analogs for the treatment of hepatitis B virus infection” (J Med Chem, 2015).

As a reminder, the CC50 is the concentration at which the toxic effect on the cells reaches its halfway point. A low value points to harm at low concentration. As usually defined, the inhibition is how much of the control response was suppressed. By inhibition in vivo is commonly meant the relative decrease from the control value, in per cent. As usually defined, the Tmax is the time from dosing to the highest level. For orientation: bioavailability means the share of a dose that reaches the circulation, judged against a reference dose that is usually intravenous. Read a high bioavailability as good availability. Broadly, the Cmax is the peak of the concentration-time curve. Broadly, the EC50 is the midpoint of the concentration-response curve. Read a low EC50 as greater potency.

Data set [1] is described as follows: Cytotoxicity against human HepG2.2.15 cells by MTT assay. Format: cell-based, HepG2 2.2.15. Background: Tetrazolium assays rely on reduction of a dye to a coloured formazan, in cell work by metabolically active cells.
The subject of data set [2] is Hepatitis B virus. Briefly: Antiviral activity against Hepatitis B virus in HepG2.CW cells assessed as inhibition of viral DNA replication at 1 uM after 9 days by real-time FQ-PCR analysis. The data set is classed as functional. To be noted: 216 h.
Data set [3] has as its system Hepatitis B virus. Briefly: Antiviral activity against Hepatitis B virus in HepG2.2.15 cells assessed as inhibition of extracellular viral DNA replication at 0.1 uM after 3 days by real-time FQ-PCR analysis. The data set is classed as functional. The note with it: HepG2 2.2.15, 72 h.
In data set [4] the test system is Hepatitis B virus. Briefly: Antiviral activity against Hepatitis B virus in HepG2.2.15 cells assessed as inhibition of intracellular viral DNA replication at 0.1 uM after 6 days by real-time FQ-PCR analysis. The data set is classed as functional. To be noted: HepG2 2.2.15, 144 h.
For data set [5], the system named is Hepatitis B virus. The data set is described as follows: Antiviral activity against Hepatitis B virus in HepG2.2.15 cells assessed as inhibition of intracellular viral DNA replication at 0.1 uM after 9 days by real-time FQ-PCR analysis. To be noted: HepG2 2.2.15, 216 h. The data set is classed as functional.
In data set [6] the test system is Hepatitis B virus. The data set is described as follows: Antiviral activity against Hepatitis B virus in HepG2.2.15 cells assessed as inhibition of extracellular viral DNA replication at 0.1 uM after 6 days by real-time FQ-PCR analysis. The data set is classed as functional. To be noted: HepG2 2.2.15, 144 h.
In data set [7] the test system is Hepatitis B virus. The data set is described as follows: Antiviral activity against Hepatitis B virus in HepG2.2.15 cells assessed as inhibition of extracellular viral DNA replication at 0.1 uM after 9 days by real-time FQ-PCR analysis. The data set is classed as functional. To be noted: HepG2 2.2.15, 216 h.
The test system of data set [8] is Hepatitis B virus. The data set is described as follows: Antiviral activity against Hepatitis B virus in HepG2.2.15 cells assessed as inhibition of intracellular viral DNA replication at 0.1 uM after 3 days by real-time FQ-PCR analysis. Format: functional. To be noted: HepG2 2.2.15, 72 h.
Data set [9] has as its system Rattus norvegicus. Briefly: In vivo drug formation in rat urine sample treated with 1-((2R,3S,4R,5R)-5-Azido-3-fluoro-4-hydroxy-5-(hydroxymethyl)tetrahydrofuran-2-yl)-4-(cyclopropylamino)-pyrimidin-2(1H)-one by LC-MS/MS analysis. Format: ADME, organism-based.
For data set [10], the system named is Duck hepatitis B virus. Briefly: Antiviral activity against duck Hepatitis B virus infected in duck assessed as inhibition of viral DNA replication in serum at 20 mg/kg/day, po measured after 3 days of treatment withdrawal. Format: functional. The note with it: 72 h.
The subject of data set [11] is Duck hepatitis B virus. The data set is described as follows: Antiviral activity against duck Hepatitis B virus infected in duck assessed as inhibition of viral DNA replication in liver at 20 mg/kg/day, po treatment initiated at day 5 after infection relative to control. The data set is classed as functional. To be noted: 120 h.
For data set [12], the system named is Duck hepatitis B virus. Briefly: Antiviral activity against duck Hepatitis B virus infected in duck assessed as inhibition of viral DNA replication in serum at 20 mg/kg/day, po treatment initiated at day 10 after infection relative to control. The data set is classed as functional. The note with it: 240 h.
Data set [13] can be described thus: Tmax in Sprague-Dawley rat at 32 mg/kg, po. The data set is classed as ADME, organism-based. To be noted: in vivo.
Data set [14] can be described thus: Oral bioavailability in Sprague-Dawley rat at 32 mg/kg. Format: ADME, organism-based. The note with it: in vivo.
Data set [15] can be described thus: Cmax in Sprague-Dawley rat at 32 mg/kg, po. Format: ADME, organism-based. On the set-up: dose 32 mg/kg, route oral. The note with it: in vivo.
The test system of data set [16] is Duck hepatitis B virus. Briefly: Antiviral activity against duck Hepatitis B virus infected in duck assessed as inhibition of viral DNA replication in serum at 20 mg/kg/day, po treatment initiated at day 5 after infection relative to control. The data set is classed as functional. To be noted: 120 h.
Data set [17] has as its system Duck hepatitis B virus. Briefly: Antiviral activity against duck Hepatitis B virus infected in duck assessed as inhibition of viral DNA replication in liver at 20 mg/kg/day, po treatment initiated at day 10 after infection relative to control. Format: functional. To be noted: 240 h.
The test system of data set [18] is Duck hepatitis B virus. Briefly: Antiviral activity against duck Hepatitis B virus infected in duck assessed as inhibition of viral DNA replication in liver at 20 mg/kg/day, po measured after 3 days of treatment withdrawal. Format: functional. To be noted: 72 h.
The test system of data set [19] is Rattus norvegicus. The data set is described as follows: In vivo drug formation in rat urine sample treated with 1-((2R,3S,4R,5R)-5-Azido-3-fluoro-4-hydroxy-5-(hydroxymethyl)tetrahydrofuran-2-yl)-4-(cyclopropylamino)-pyrimidin-2(1H)-one by NMR spectrum. The data set is classed as ADME, organism-based.
Data set [20] deals with Hepatitis B virus. The data set is described as follows: Antiviral activity against lamivudine-resistant Hepatitis B virus. The data set is classed as functional, organism-based.
Data set [21] concerns Hepatitis B virus. Briefly: Antiviral activity against wild type Hepatitis B virus. Format: functional, organism-based.
Data set [22] concerns Rattus norvegicus. The data set is described as follows: In vivo drug formation in rat bile sample treated with 1-((2R,3S,4R,5R)-5-Azido-3-fluoro-4-hydroxy-5-(hydroxymethyl)tetrahydrofuran-2-yl)-4-(cyclopropylamino)-pyrimidin-2(1H)-one by LC-MS/MS analysis. The data set is classed as ADME, organism-based.
Data set [23] concerns Rattus norvegicus. The data set is described as follows: In vivo drug formation in rat plasma sample treated with 1-((2R,3S,4R,5R)-5-Azido-3-fluoro-4-hydroxy-5-(hydroxymethyl)tetrahydrofuran-2-yl)-4-(cyclopropylamino)-pyrimidin-2(1H)-one by LC-MS/MS analysis. The data set is classed as ADME, organism-based.

SMILES strings stand for the structures. Bounds are passed on as bounds.

Take `CNc1ccn([C@@H]2O[C@@](CO)(N=[N+]=[N-])[C@@H](O)[C@@H]2F)c(=O)n1`: the half-maximal cytotoxic concentration (CC50) in [1] is more than 125 µM. Also, the inhibition at 1 µM in the data set on Hepatitis B virus [2] came to 81.1%.
In the case of `C=C1[C@H](CO)[C@@H](O)C[C@@H]1n1cnc2c(=O)[nH]c(N)nc21`, the inhibition at 0.1 µM was found to be 38.2% with Hepatitis B virus [3]; 40.6% in the data set on Hepatitis B virus [4]; 57.6% in the data set with Hepatitis B virus [5]; 47.8% with Hepatitis B virus [6]; 78.6% with Hepatitis B virus [7]; 37.8% in the data set with Hepatitis B virus [8]. The molecule further registered a CC50 in [1] of 30 µM. Moreover, the inhibition at 1 µM in the data set on Hepatitis B virus [2] worked out at 95.7%.
Consider `CN(C)c1ccn([C@@H]2O[C@@](CO)(N=[N+]=[N-])[C@@H](O)[C@@H]2F)c(=O)n1`, for which, in data set [1], the half-maximal cytotoxic concentration (CC50) is more than 125 µM. Besides, the inhibition at 1 µM with Hepatitis B virus [2] turned out to be 43.6%.
For `[N-]=[N+]=N[C@]1(CO)O[C@@H](n2ccc(NC3C(O)C3O)nc2=O)[C@@H](F)[C@@H]1O` (stereo not given in full), in the data set with Rattus norvegicus [9], the Drug metabolism entry was “metabolite_detected”.
For `Nc1ccn([C@@H]2CS[C@H](CO)O2)c(=O)n1` [LAMIVUDINE], the inhibition in vivo at 20 mg/kg/day in the data set with Duck hepatitis B virus [10] turned out to be 79.3%; in the data set on Duck hepatitis B virus [11], 52.7%; in the data set on Duck hepatitis B virus [12] it was 82.2%; with Duck hepatitis B virus [16], 88.6%; in the data set on Duck hepatitis B virus [17], 84%; with Duck hepatitis B virus [18], 76.2%. The time to peak (Tmax) in data set [13] is 5 h. In addition, in data set [14], the bioavailability came out at 18.7%. In [15], the peak concentration (Cmax) was 0.274 µg/mL.
`CCC(C)Nc1ccn([C@@H]2O[C@@](CO)(N=[N+]=[N-])[C@@H](O)[C@@H]2F)c(=O)n1` (stereo not given in full) showed a CC50 in data set [1] of more than 125 µM. In the data set with Hepatitis B virus [2], the inhibition at 1 µM came to 61.7%.
On to `[N-]=[N+]=N[C@]1(CO)O[C@@H](n2ccc(N)nc2=O)[C@@H](F)[C@@H]1O` [RO-0622], for which the Drug metabolism result in the data set on Rattus norvegicus [19] and in the data set on Rattus norvegicus [9] was “metabolite_detected” in each case. The EC50 was found to be 0.27 µM with Hepatitis B virus [20] and 0.12 µM in the data set with Hepatitis B virus [21].
Turning to `[N-]=[N+]=N[C@]1(CO)O[C@@H](n2ccc(NC3CCCC3)nc2=O)[C@@H](F)[C@@H]1O`, in data set [1], the CC50 was more than 125 µM. In addition, the inhibition at 1 µM with Hepatitis B virus [2] worked out at 37.3%.
As to `[N-]=[N+]=N[C@]1(CO)O[C@@H](n2ccc(=O)[nH]c2=O)[C@@H](F)[C@@H]1O`, the CC50 in data set [1] was more than 125 µM. In addition, the inhibition at 1 µM with Hepatitis B virus [2] came out at 75.5%.
Take `[N-]=[N+]=N[C@]1(CO)O[C@@H](n2ccc(NC3CC3O)nc2=O)[C@@H](F)[C@@H]1O` (stereo not given in full): the Drug metabolism entry in the data set with Rattus norvegicus [22], with Rattus norvegicus [9] and in the data set with Rattus norvegicus [23] was “metabolite_detected” throughout.
The molecule `[N-]=[N+]=N[C@]1(CO)O[C@@H](n2ccc(NC3CCCCC3)nc2=O)[C@@H](F)[C@@H]1O` had a CC50 in data set [1] of more than 125 µM. Also, the inhibition at 1 µM with Hepatitis B virus [2] came to 23.6%.
`[N-]=[N+]=N[C@]1(CO)O[C@@H](n2ccc(N3CCCC3)nc2=O)[C@@H](F)[C@@H]1O` displayed a 50% cytotoxic concentration (CC50) in [1] of more than 125 µM. Besides, the inhibition at 1 µM with Hepatitis B virus [2] is 33.1%.
In turn, `CCNc1ccn([C@@H]2O[C@@](CO)(N=[N+]=[N-])[C@@H](O)[C@@H]2F)c(=O)n1` registered a CC50 in data set [1] of more than 125 µM. Moreover, in the data set on Hepatitis B virus [2], the inhibition at 1 µM was found to be 78%.
The molecule `CCN(CC)c1ccn([C@@H]2O[C@@](CO)(N=[N+]=[N-])[C@@H](O)[C@@H]2F)c(=O)n1` returned a CC50 in data set [1] of more than 125 µM. Besides, the inhibition at 1 µM in the data set with Hepatitis B virus [2] was 7.1%.
With `CC(C)Nc1ccn([C@@H]2O[C@@](CO)(N=[N+]=[N-])[C@@H](O)[C@@H]2F)c(=O)n1`, the CC50 in data set [1] was more than 125 µM. In addition, the inhibition at 1 µM with Hepatitis B virus [2] was determined as 43.7%.
